# Results as given in publication PMC7346179, “Fe Porphyrin-Based SOD Mimic and Redox-Active Compound, (OH)FeTnHex-2-PyP^4+, in a Rodent Ischemic Stroke (MCAO) Model: Efficacy and Pharmacokinetics as Compared to Its Mn Analogue, (H2O)MnTnHex-2-PyP^5+” (Antioxidants, 2020).
# Values joined by “and” are separate entries in the source; they are usually repeats but may differ in a detail not shown here. Identical values can stand only once.
# Legend:
# [1] = mouse, in vivo; cited from earlier work
# [2] = cited from earlier work
# mice [3] = conditions: mouse, in vivo, ip, 10 mg/kg; cited from earlier work
# rat MCAO stroke model = assay: 7-day rat MCAO efficacy study; type: in vivo, rats; conditions: 0.225 mg/kg twice per day 7 days
# Procedure: The 7-day rat MCAO study was done as described in [9]. The 250–275 g Wistar rats were used as another species is a requirement for preclinical stroke research. The duration of the right MCAO was 90 min. […] The first dose was given IV slowly via the […] at 5 min after ischemia/reperfusion. The following doses were given SC. At day 7 post-injury, a person blinded to the treatment groups assessed the neurological deficit and then brains were harvested for infarct volume measurements.
# mice [4] = conditions: mice, 5 mg/kg IP injection; cited from earlier work
# [5] = in vivo; cited from earlier work
# [6] = tested on: rat middle cerebral artery occlusion (MCAO) stroke model; conditions: cited from earlier work
# [7] = 7-day PK study in healthy rats; type: in vivo; conditions: healthy rats
# Procedure: Samples were prepared as described in [10] with modifications to accommodate the small tissue sizes and enhance the detection sensitivity. Quantitative liquid chromatography electrospray-ionization tandem mass spectrometry (LCMS/MS) analysis was performed on a Shimadzu 20A series HPLC (LC)-Applied Biosystems/MDS Sciex API 3200 QTrap or API 4000 QTrap tandem-mass spectrometer (MS/MS) as described earlier. The use of heptafluorobutyric acid (HFBA) mobile phase modifier as an ion-pairing agent increases the overall lipophilicity and volatility, which increases the retention and ionization efficiency of the analytes, affording an abundance of HFBA-associated ions. […] (OH)FeTnBuOE-2-PyP^4+ was prepared as described for other Fe(III) N-alkylpyridylporphyrins and analogous (H2O)MnTnBuOE-2-PyP^5+ [13, 16]. The solvents employed were: A = 95:5 H2O:MeCN (0.1% HFBA); B = MeCN (0.1% HFBA). […] With the chosen solvent system, all four atropoisomers collapsed into a single peak, enhancing the sensitivity of the method to as low as 0.5 nM (nanomoles per L of tissue homogenate). Analyses were performed using a Phenomenex Luna C18 guard cartridge (ID × L, 2 × 4 mm) only. […] Their structures are also shown. […] The response was calculated as the ratio between the standard peak area and the internal standard peak area. We conducted a 7-day rat PK study under conditions identical to those that afforded the therapeutic efficacy of MnTnHex-2-PyP^5+ in an earlier study. […] Afterwards, blood/plasma samples were collected before injection and at 2 h after 24 h-injections (every second injection). Liver and brains were taken for analysis 12 h after the last injection. Three rats were used per compound. After the single (first) SC injection, we obtained a prototypical PK profile observed in the case of all Mn(III) ortho […] In contrast, although similarly absorbed after SC injection, the […] Our understanding is that the “elimination” process is actually a fast distribution/retention into/by the liver, kidney, and spleen, a multi-compartmental process responsible for early decay of the plasma concentration, observed for all Mn porphyrin analogs investigated.
# [8] = 2-h PK study in rats that underwent MCAO; type: in vivo; conditions: rats after 90-min MCAO, 0.225 mg/kg IV + 0.225 mg/kg SC, 2 h after reperfusion
# Procedure: Samples were prepared as described in [10] with modifications to accommodate the small tissue sizes and enhance the detection sensitivity. Quantitative liquid chromatography electrospray-ionization tandem mass spectrometry (LCMS/MS) analysis was performed on a Shimadzu 20A series HPLC (LC)-Applied Biosystems/MDS Sciex API 3200 QTrap or API 4000 QTrap tandem-mass spectrometer (MS/MS) as described earlier. The use of heptafluorobutyric acid (HFBA) mobile phase modifier as an ion-pairing agent increases the overall lipophilicity and volatility, which increases the retention and ionization efficiency of the analytes, affording an abundance of HFBA-associated ions. […] (OH)FeTnBuOE-2-PyP^4+ was prepared as described for other Fe(III) N-alkylpyridylporphyrins and analogous (H2O)MnTnBuOE-2-PyP^5+ [13, 16]. The solvents employed were: A = 95:5 H2O:MeCN (0.1% HFBA); B = MeCN (0.1% HFBA). […] With the chosen solvent system, all four atropoisomers collapsed into a single peak, enhancing the sensitivity of the method to as low as 0.5 nM (nanomoles per L of tissue homogenate). Analyses were performed using a Phenomenex Luna C18 guard cartridge (ID × L, 2 × 4 mm) only. […] Their structures are also shown. […] The response was calculated as the ratio between the standard peak area and the internal standard peak area. Another possible cause for the failure of therapeutics in stroke may be their slow accumulation in the brain, i.e., not being there in time to prevent the burst of reactive species and rapid activation of transcription factors, which perpetuate oxidative stress. We therefore conducted short-term 2-h PK to evaluate how fast post-MCAO our drug gets into the brain. Three rats per compound were subjected to 90 min of transient right MCAO as reported. The first dose of 0.225 mg/kg was given IV via the […] at 5 min after ischemia/reperfusion. The second dose of 0.225 mg/kg was given SC at 30 min after reperfusion. Blood was collected at 2 h and plasma harvested. Rats were perfused with heparin saline (2000 IU/500 mL) until no reddish fluid came out from the right atrium. Then, the liver, and left and right brain were collected and placed on dry ice and stored at -20 °C. Plasma, liver, and brain were analyzed by LCMS/MS.
# [9] = SC 0.225 mg/kg BID 7 days, 12 h after last injection
# [10] = SC 0.225 mg/kg BID 7 days, WinNonlin simulation
smiles,measurement,setting,value
"CCCCCC[n+]1ccccc1-c1c2nc(c(-c3cccc[n+]3CCCCCC)c3ccc([n-]3)c(-c3cccc[n+]3CCCCCC)c3nc(c(-c4cccc[n+]4CCCCCC)c4ccc1[n-]4)C=C3)C=C2.[Mn+3] [MnHex, Mn(III) meso-tetrakis(N-n-hexylpyridinium-2-yl)porphyrin]",accumulation in mitochondria relative to cytosol,[1],3.6 fold
same,"log kcat(O2^•−), log of rate constant for catalysis of O2^•− dismutation",[2],7.48
same,blood pressure drop,mice [3],does cause a blood pressure drop
same,"p, cortex infarct volume vs vehicle",rat MCAO stroke model,0.046
same,"p, neuroscore vs vehicle",rat MCAO stroke model,0.016
same,"p, subcortex infarct volume vs vehicle",rat MCAO stroke model,0.049
same,"p, total infarct volume vs vehicle",rat MCAO stroke model,0.029
same,neurological deficit (neuroscore and infarct volume),"rat MCAO stroke model; first dose IV, then SC",significantly improved
same,toxicity / death of mice,mice [4],mice died
same,blood–brain barrier crossing,[5],crosses the BBB
same,infarct size in earlier 7-day MCAO study,[6],significantly reduced the infarct size
same,"neurologic outcome, infarct size and inflammation",[6]; rat MCAO stroke model and subarachnoid hemorrhage,improved the neurologic outcome and decreased infarct size and inflammation
same,brain level in earlier 7-day MCAO study,"[6]; rat, in vivo",~ 30 nM
same,brain level at end of 7-day treatment,[7]; SC 0.225 mg/kg BID 7 days,25 nM
same,brain concentration at end of 7-day treatment,[7]; [9],25 nM
same,end-of-treatment 7-day liver tissue level,[7]; [9],21 µM
same,average plasma concentration (Caver),[7]; [10],76 nM
same,plasma AUC,[7]; [10],11.5 µM·h
same,Cmax,"[7]; SC 0.225 mg/kg BID 7 days, WinNonlin simulation, read-out: Cmax at steady state, plasma",220 nM
same,elimination from plasma after single (first) SC injection,"[7]; SC 0.225 mg/kg, first 12 h",eliminated from plasma within 12 h
same,plasma half-life,"[7]; SC 0.225 mg/kg, estimated from simulation, 0.225 mg/kg",1.4 h and ~ 1.4 h
same,level in injured (right) brain hemisphere,[8],~ 35 nM
